From the NIST ThermoML archive (doi:10.1021/je101230a)
Numbers after ± are expanded uncertainties.

Conditions: Crystal; DTA

Normal melting temperature: 198.00 ± 1.1 °C
SMILES: CCc1ccc(CCOc2ccc(CC3SC(=O)NC3=O)cc2)nc1.Cl (stereo unspecified)
